Data: article PMC12655637, “Design, Synthesis, and Mechanistic Study of Novel Ciprofloxacin/Thiazole Chalcone Hybrids as Potential Anticancer Agents” (Pharmaceuticals, 2025)

Experiments:
Assay in all cases: NCI-60 screening, one-dose (10 µM) and five-dose, SRB
CCRF-CEM = format: cell-based, human
K-562 = format: cell-based, human
MOLT-4 = format: cell-based, human
EKVX = format: cell-based, human
HOP-92 = format: cell-based, human
NCI-H23 = format: cell-based, human
NCI-H322M = format: cell-based, human
NCI-H522 = format: cell-based, human
HCC-2998 = format: cell-based, human
HT29 = format: cell-based, human
KM12 = format: cell-based, human; settings: five-dose, KM12
SF-268 = format: cell-based, human
SF-539 = format: cell-based, human; settings: five-dose, SF-539
SNB-19 = format: cell-based
U251 = format: cell-based, human; settings: Homo sapiens, U-251
[1] = Homo sapiens, five-dose, read-out: LC50 (the source's name)
[2] = Homo sapiens, K562, five-dose, K-562
[3] = Homo sapiens, five-dose, MOLT-4
[4] = Homo sapiens, five-dose, HOP-92
[5] = Homo sapiens, five-dose, NCI-H23
[6] = Homo sapiens, five-dose, NCI-H522
[7] = Homo sapiens, five-dose, HCC-2998
[8] = Homo sapiens, HT-29, five-dose, HT29
[9] = Homo sapiens, five-dose, SF-268
[10] = Homo sapiens, five-dose, SNB-19

With `Cc1nc(SCC(=O)N2CCN(c3cc4c(cc3F)c(=O)c(C(=O)O)cn4C3CC3)CC2)sc1C(=O)/C=C/c1cccc(F)c1` [Compound 4d, (E)-1-Cyclopropyl-6-fluoro-7-(4-(2-((5-(3-(3-fluorophenyl)acryloyl)-4-methylthiazol-2-yl)thio)acetyl)piperazin-1-yl)-4-oxo-1,4-dihydroquinoline-3-carboxylic Acid] the activity at 10 µM (CCRF-CEM; Homo sapiens, 10 μM, Leukemia, read-out: Growth percentage) was 17.1%, the GI50 (CCRF-CEM; Homo sapiens, five-dose) was 2.88 µM and the IC50 (CCRF-CEM; Homo sapiens, five-dose) was 4.37 µM. For the same molecule, the CC50 (CCRF-CEM; [1]) was greater than 100 µM, the TGI (CCRF-CEM; five-dose) was 4.3 µM and the activity at 10 µM (K-562; Homo sapiens, K562, 10 μM, K-562, Leukemia, read-out: Growth percentage) was 56.1%. The GI50 (K-562; [2]) was 1.58 µM, the IC50 (K-562; [2]) was 2.4 µM and the CC50 (K-562; Homo sapiens, K562, five-dose, K-562, read-out: LC50 (the source's name)) was 9.12 µM. For the same molecule, the TGI (K-562; five-dose, K-562) was 8.7 µM, the activity at 10 µM (MOLT-4; Homo sapiens, 10 μM, MOLT-4, Leukemia, read-out: Growth percentage) was 0.79% and the GI50 (MOLT-4; [3]) was 3.4 µM. It also gave an IC50 (MOLT-4; [3]) of 4.8 µM, an LC50 (concentration killing 50% of cells) (MOLT-4; [3]) of 53.7 µM and a TGI (MOLT-4; five-dose, MOLT-4) of 0.34 µM. It also gave an activity at 10 µM (EKVX; Homo sapiens, 10 μM, Non-Small-Cell Lung Cancer, read-out: Growth percentage) of 70.2%, a GI50 (EKVX; Homo sapiens, five-dose) of 1.7 µM and an IC50 (EKVX; Homo sapiens, five-dose) of 5.9 µM. For the same molecule, the CC50 (EKVX; [1]) was greater than 100 µM, the TGI (EKVX; five-dose) was 100.0 µM and the activity at 10 µM (HOP-92; Homo sapiens, 10 μM, HOP-92, Non-Small-Cell Lung Cancer, read-out: Growth percentage) was 91.9%. The GI50 (HOP-92; [4]) was greater than 100 µM, the IC50 (HOP-92; [4]) was greater than 100 µM and the LC50 (concentration killing 50% of cells) (HOP-92; [4]) was greater than 100 µM. For the same molecule, the TGI (HOP-92; five-dose, HOP-92) was 100.0 µM, the activity at 10 µM (NCI-H23; Homo sapiens, 10 μM, NCI-H23, Non-Small-Cell Lung Cancer, read-out: Growth percentage) was 45.6% and the GI50 (NCI-H23; [5]) was greater than 100 µM. The IC50 (NCI-H23; [5]) was greater than 100 µM, the LC50 (50% lethal concentration) (NCI-H23; [5]) was greater than 100 µM and the TGI (NCI-H23; five-dose, NCI-H23) was 100.0 µM. The Growth percentage (NCI-H322M; 10 μM, Non-Small-Cell Lung Cancer) was 95.7%, the GI50 (NCI-H322M; Homo sapiens, five-dose) was greater than 100 µM and the IC50 (NCI-H322M; Homo sapiens, five-dose) was greater than 100 µM. It also gave an LC50 (NCI-H322M; Homo sapiens, five-dose) greater than 100 µM, a TGI (NCI-H322M; five-dose) of 100.0 µM and an activity at 10 µM (NCI-H522; Homo sapiens, 10 μM, NCI-H522, Non-Small-Cell Lung Cancer, read-out: Growth percentage) of 88.2%. For the same molecule, the GI50 (NCI-H522; [6]) was greater than 100 µM, the IC50 (NCI-H522; [6]) was greater than 100 µM and the LC50 (concentration killing 50% of cells) (NCI-H522; [6]) was greater than 100 µM. For the same molecule, the TGI (NCI-H522; five-dose, NCI-H522) was 100.0 µM, the activity at 10 µM (HCC-2998; Homo sapiens, 10 μM, HCC-2998, Colon Cancer, read-out: Growth percentage) was -29% and the GI50 (HCC-2998; [7]) was 1.4 µM. It also gave an IC50 (HCC-2998; [7]) of 8.5 µM, a CC50 (HCC-2998; Homo sapiens, five-dose, HCC-2998, read-out: LC50 (the source's name)) greater than 100 µM and a TGI (HCC-2998; five-dose, HCC-2998) of 0.42 µM. The activity at 10 µM (HT29; Homo sapiens, HT-29, 10 μM, HT29, Colon Cancer, read-out: Growth percentage) was 3.7%, the GI50 (HT29; [8]) was greater than 100 µM and the IC50 (HT29; [8]) was 100 µM. The CC50 (HT29; Homo sapiens, HT-29, five-dose, HT29, read-out: LC50 (the source's name)) was greater than 100 µM, the TGI (HT29; five-dose, HT29) was 1.91 µM and the GI50 (KM12; Homo sapiens) was 0.52 µM. The IC50 (KM12; Homo sapiens) was 0.69 µM, the LC50 (KM12; Homo sapiens) was 6.92 µM and the TGI (KM12) was 97.7 µM. The activity at 10 µM (SF-268; Homo sapiens, 10 μM, SF-268, CNS Cancer, read-out: Growth percentage) was 25.7%, the GI50 (SF-268; [9]) was 27.5 µM and the IC50 (SF-268; [9]) was greater than 100 µM. It also gave a CC50 (SF-268; Homo sapiens, five-dose, SF-268, read-out: LC50 (the source's name)) greater than 100 µM, a TGI (SF-268; five-dose, SF-268) of 100.0 µM and a GI50 (SF-539; Homo sapiens) of 2 µM. It also gave an IC50 (SF-539; Homo sapiens) of 4.1 µM, a CC50 (SF-539; Homo sapiens, read-out: LC50 (the source's name)) greater than 100 µM and a TGI (SF-539) of 100.0 µM. It also gave an activity at 10 µM (SNB-19; Homo sapiens, 10 μM, SNB-19, CNS Cancer, read-out: Growth percentage) of 12.2%, a GI50 (SNB-19; [10]) of 6.9 µM and an IC50 (SNB-19; [10]) of 28.2 µM. The CC50 (SNB-19; Homo sapiens, five-dose, SNB-19, read-out: LC50 (the source's name)) was greater than 100 µM, the TGI (SNB-19; five-dose, SNB-19) was 100.0 µM and the activity at 10 µM (U251; 10 μM, U251, CNS Cancer, read-out: Growth percentage) was -7.6%. It also gave a GI50 (U251; five-dose, U251) greater than 100 µM, an IC50 (U251; five-dose, U251) greater than 100 µM and a CC50 (U251; five-dose, U251, read-out: LC50 (the source's name)) greater than 100 µM.
